Assay results: patent EP4624457A1, “I[…] DERIVATIVES, I[…] NEURODEGENERATIVE DISEASES” (Centre National de la Recherche Scientifique, priority 2024, dated 2025)
Read-outs that look alike come from different tables or passages of the source.

Columns and labels:
cancer cell lines [1] = experiment: Cytotoxic activity of CiTX, comparison of orders of magnitude; format: cell-based; conditions: this work
Protocol: Cell viability. […] The cell viability assay was performed using portimine-A as a positive control (Table 4). […] Table 4. Cytotoxic activity of portimine-A and ingrilimine

Jurkat cells = conditions: 50 nM for 6 h; cited from earlier work
[2] = target: muscle (α1)2βγδ nAChR subtype (Torpedo marmorata, UniProt P02711+Q6S3H8+Q6S3H9); experiment: Two-electrode voltage clamp electrophysiology, antagonistic activity on Xenopus laevis oocytes having incorporated Torpedo muscle-type nAChR; format: cell-based; conditions: TEVC, value (95% CI), toxin purified by the applicant, Figure 5, read-out: nAChR subtype (nM; 95% CI) α12β1γδ (Torpedo)
Text: The emerging cyclic imines toxins (CiTXs) of global distribution across coastal environments that are produced by dinoflagellates move fast up the human food chain through shellfish. The CiTX family includes 44 compounds: 7 gymnodimines (A-E, 12-methylgymnodimine and 16-desmethyl gymnodimine D), 16 spirolides (A-D, G-I, 13-desmethyl spirolide-C, 27-Hydroxy-13-desmethyl spirolide-C, 13,19-didesmethyl spirolide-C, 20-hydroxy-13,19-didesmethyl spirolide- C, 27-hydroxy-13,19-spirolide-C, 27-Oxo-13,19-didesmethyl spirolide-C, 13-desmethyl spirolide-D, 20-hydroxy-13,19-didesmethyl spirolide-D and 20-methyl spirolide-G), 8 pinnatoxins (A-H), 3 pteriatoxins (A-C), 6 prorocentrolides (A-B, 4- hydroxyprorocentrolide, 9,51-dihydro prorocentrolide, 30-sulfate prorocentrolide and 14-O-acetyl-4-hydroxyprorocentrolide), 1 spiroprorocentrimine, 2 portimines (A and B), and 1 kabirimine, (Aráoz et al. (2020) Cyclic imine toxins survey in coastal european shellfish samples: Bioaccumulation and mode of action of 28-O-palmitoyl ester of pinnatoxin-G. First report of portimine-A bioaccumulation. Harmful Algae, 98 [1]). The spiroimine moiety is the major feature characterizing cyclic imine toxins. […]

HCT116 cells = experiment: JC-1 mitochondrial membrane potential assay (flow cytometry); format: cell-based, human
cancer cell lines [3] = conditions: literature (Tang et al. 2023; Fribley et al. 2019); cited from earlier work

muscle (α1)2βγδ nAChR subtype, sequence (P02711 25-461): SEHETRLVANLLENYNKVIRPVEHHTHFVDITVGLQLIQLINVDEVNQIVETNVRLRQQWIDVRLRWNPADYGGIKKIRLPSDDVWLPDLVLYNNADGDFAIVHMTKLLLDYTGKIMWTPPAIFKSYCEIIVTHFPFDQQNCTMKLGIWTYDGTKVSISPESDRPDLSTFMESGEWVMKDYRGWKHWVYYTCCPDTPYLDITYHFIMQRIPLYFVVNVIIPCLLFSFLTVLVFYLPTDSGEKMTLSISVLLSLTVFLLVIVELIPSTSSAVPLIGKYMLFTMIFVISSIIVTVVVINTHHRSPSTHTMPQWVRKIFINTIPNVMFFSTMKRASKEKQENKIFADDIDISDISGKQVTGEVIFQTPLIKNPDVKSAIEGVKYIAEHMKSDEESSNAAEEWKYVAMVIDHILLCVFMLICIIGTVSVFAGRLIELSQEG
muscle (α1)2βγδ nAChR subtype, sequence (Q6S3H9 entry or part of it): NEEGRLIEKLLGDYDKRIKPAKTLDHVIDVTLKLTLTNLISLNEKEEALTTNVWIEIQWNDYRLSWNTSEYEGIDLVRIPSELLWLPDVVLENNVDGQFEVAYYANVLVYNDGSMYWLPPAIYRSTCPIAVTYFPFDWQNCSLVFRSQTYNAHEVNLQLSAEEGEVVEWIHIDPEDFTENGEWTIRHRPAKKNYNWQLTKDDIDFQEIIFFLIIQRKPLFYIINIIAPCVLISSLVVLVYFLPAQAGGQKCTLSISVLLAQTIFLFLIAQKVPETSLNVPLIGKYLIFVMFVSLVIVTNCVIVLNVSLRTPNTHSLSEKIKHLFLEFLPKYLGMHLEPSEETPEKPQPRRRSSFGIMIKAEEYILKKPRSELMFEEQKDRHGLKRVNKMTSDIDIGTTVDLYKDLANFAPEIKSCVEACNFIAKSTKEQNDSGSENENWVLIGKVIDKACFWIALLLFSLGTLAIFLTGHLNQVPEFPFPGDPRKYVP
muscle (α1)2βγδ nAChR subtype, sequence (Q6S3H8 entry or part of it): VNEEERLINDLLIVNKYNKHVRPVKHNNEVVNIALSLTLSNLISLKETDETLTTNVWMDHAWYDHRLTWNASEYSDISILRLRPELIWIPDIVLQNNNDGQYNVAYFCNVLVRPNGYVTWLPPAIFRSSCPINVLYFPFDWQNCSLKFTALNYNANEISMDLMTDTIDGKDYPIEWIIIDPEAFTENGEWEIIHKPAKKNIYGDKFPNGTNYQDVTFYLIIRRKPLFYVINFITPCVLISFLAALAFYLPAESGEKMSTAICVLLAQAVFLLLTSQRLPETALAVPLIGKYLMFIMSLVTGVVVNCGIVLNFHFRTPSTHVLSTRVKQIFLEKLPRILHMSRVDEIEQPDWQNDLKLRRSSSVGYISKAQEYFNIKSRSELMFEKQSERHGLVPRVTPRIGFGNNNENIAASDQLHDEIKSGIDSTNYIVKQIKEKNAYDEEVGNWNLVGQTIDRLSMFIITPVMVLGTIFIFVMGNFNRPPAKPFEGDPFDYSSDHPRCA
muscle (α1)2βγδ nAChR subtype, sequence (Q6S3I0 entry or part of it, further chain): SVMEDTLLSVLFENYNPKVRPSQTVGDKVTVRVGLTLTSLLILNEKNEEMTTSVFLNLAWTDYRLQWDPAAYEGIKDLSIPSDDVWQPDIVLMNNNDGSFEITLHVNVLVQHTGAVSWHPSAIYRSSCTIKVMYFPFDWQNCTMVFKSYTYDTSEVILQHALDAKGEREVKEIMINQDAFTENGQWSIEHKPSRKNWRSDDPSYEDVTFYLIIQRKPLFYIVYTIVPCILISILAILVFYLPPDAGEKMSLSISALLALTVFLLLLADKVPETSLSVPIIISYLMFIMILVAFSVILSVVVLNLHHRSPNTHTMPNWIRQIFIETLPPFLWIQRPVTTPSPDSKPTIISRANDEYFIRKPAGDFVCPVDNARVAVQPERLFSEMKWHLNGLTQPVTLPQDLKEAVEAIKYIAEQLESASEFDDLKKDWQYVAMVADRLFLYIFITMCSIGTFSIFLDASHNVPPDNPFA

C=CC1=C[C@@H]2C[C@@H](O)[C@@H](O)/C(C)=C/C/C(C)=C/CCC3=NCCC[C@]32CC1 [Ingrilimine, ingrilimine]
cytotoxic activities, order of magnitude (cancer cell lines [1]): ~10^-8 M

C=CC1=C[C@@H]2[C@@H]3O[C@]4(CC[C@H](O4)[C@@H](C)C[C@@H](O)C3=O)C[C@H](O)C3=NCC[C@@]32CC1 [Portimine-A]
annexin V-positive cells (Jurkat cells): 50% | viable cells (Jurkat cells): 50% | IC50 [2]: 11900 nM | JC-1 % (HCT116 cells; 1 nM, 24 h, cells with mitochondrial membrane depolarization): 5.1% | JC-1 % (HCT116 cells; 1 nM, 48 h): 8.1% | JC-1 % (HCT116 cells; 5 nM, 24 h): 9.2% | cytotoxic activities, order of magnitude (cancer cell lines [3]): ~10^-9 M
